24 compounds from US7842695B2, “Substituted pyrazole compounds” (Merck Patent GmbH, priority 2003, dated 2010) can be followed below.

By IC50 is commonly meant the midpoint of a concentration-inhibition curve. A low value points to greater potency in that assay.

For one assay, the target named is 5-HT2A receptors (UniProt P14842). Put plainly: in-vitro affinity to 5-HT2A receptors, [3H]ketanserine displacement (Example A1). It is filed as binding. An excerpt:
The 5-HT2A receptors are exposed both to [^3H]ketanserine (a substance known for its affinity to the receptor) and also to the test compound. The decrease in the affinity of [^3H]ketanserine to the receptor is an indication of the affinity of the test substance to the 5-HT2A receptor.

A further assay concerns the target T1, 5 HT2C receptor (Homo sapiens, UniProt P28335).
T1 sequence (P28335 33-458): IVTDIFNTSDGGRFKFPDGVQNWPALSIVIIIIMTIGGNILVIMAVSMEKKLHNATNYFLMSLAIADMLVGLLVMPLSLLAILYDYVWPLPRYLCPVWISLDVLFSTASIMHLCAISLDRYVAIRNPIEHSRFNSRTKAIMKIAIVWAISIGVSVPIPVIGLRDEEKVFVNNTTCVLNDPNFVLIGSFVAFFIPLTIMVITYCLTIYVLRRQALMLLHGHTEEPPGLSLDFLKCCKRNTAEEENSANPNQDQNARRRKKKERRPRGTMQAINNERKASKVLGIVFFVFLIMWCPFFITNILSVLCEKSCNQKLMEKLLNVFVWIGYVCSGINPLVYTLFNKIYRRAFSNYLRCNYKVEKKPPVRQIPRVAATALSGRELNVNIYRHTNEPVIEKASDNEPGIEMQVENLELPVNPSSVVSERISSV
In words: affinity to the 5 HT2C receptor. It is filed as binding.

As for `CCN1CCN(Cc2cnn(-c3ccc(-c4ccc(F)cc4)cc3)c2-c2occc2C)CC1` [Example 536, 1-Ethyl-4-[1-(4′-fluorobiphenyl-4-yl)-5-(3-methyl-2-furanyl)-1H-pyrazol-4-ytmethyl]piperazine], the IC50 at 5-HT2A receptors stood at 3 nM; at 5 HT2C receptor, 1000 nM.

Consider `CCN1CCN(Cc2cnn(-c3ccc(-c4ccc(F)cc4)cn3)c2-c2ccco2)CC1` [Example 583, 1-Ethyl-4-{1-[5-(4-fluorophenyl)pyridin-2-yl]-5-furan-2-yl-1H-pyrazol-4-ylmethyl}piperazine], for which the IC50 on 5-HT2A receptors worked out at 18 nM; on 5 HT2C receptor it was 1000 nM.

As to `CCN1CCN(Cc2cnn(-c3ccc(-c4ccc5c(c4)OCCO5)cc3)c2-n2cccc2)CC1` [Example 600, 1-{1-[4-(2,3-Dihydrobenzo-1,4-dioxin-6-yl)phenyl]-5-pyrrol-1-yl-1H-pyrazol-4-ylmethyl}-4-ethylpiperazine], the IC50 on 5-HT2A receptors was determined as 26 nM; on 5 HT2C receptor, 1000 nM.

Regarding `CN1CCN(Cc2cnn(-c3ccc(-c4ccc(Cl)s4)cc3)c2-c2ccccc2F)CC1` [Example 589, 1-[1-[4-(5-Chlorothiophen-2-yl)phenyl]-5-(2-fluorophenyl)-1H-pyrazol-4-ylmethyl]-4-methylpiperazine], the concentration for half-maximal inhibition (IC50) is 20 nM at 5-HT2A receptors and 2800 nM at 5 HT2C receptor.

With `CN1CCN(Cc2cnn(-c3ccc(-c4ccc(F)cc4)cc3)c2-c2ccsc2)CC1` [Example 556, 1-[1-(4′-Fluorobiphenyl-4-yl)-5-thiophen-3-yl-1H-pyrazol-4-ylmethyl]-4-methylpiperazine], the results for the IC50 on 5-HT2A receptors and against 5 HT2C receptor were 7.8 nM and 630 nM, respectively.

Consider `OC1CCN(Cc2cnn(-c3ccc(-c4ccc(F)cc4)cn3)c2-c2ccco2)C1` (stereo not drawn) [Example 614, 1-{1-[5-(4-Fluorophenyl)pyridin-2-yl]-5-furan-2-yl-1H-pyrazol-4-ylmethyl}pyrrolidin-3-ol], for which the IC50 on 5-HT2A receptors was found to be 32 nM; on 5 HT2C receptor, 1000 nM.

As for `Fc1ccc(-c2ccc(-n3ncc(CN4CCN(C5CCCC5)CC4)c3-c3ccco3)cc2)cc1` [Example 545, 1-Cyclopentyl-4-[1-(4′-fluorobiphenyl-4-yl)-5-furan-2-yl-1H-pyrazol-4-ylmethyl]piperazine], the half-maximal inhibitory concentration (IC50) on 5-HT2A receptors worked out at 4.8 nM; at 5 HT2C receptor, 2000 nM.

For `CN1CCN(Cc2cnn(-c3ccc(-c4ccc(F)cc4)cc3)c2-c2ccco2)CC1` [Example 532, 1-[1-(4′-Fluorobiphenyl-4-yl)-5-furan-2-yl-1H-pyrazol-4-ylmethyl]-4-methylpiperazine], the IC50 was 1.48 nM on 5-HT2A receptors and 190 nM at 5 HT2C receptor.

As for `CN1CCN(Cc2cnn(-c3ccc(-c4ccsc4)cc3)c2-c2ccccc2F)CC1` [Example 574, 1-[5-(2-Fluorophenyl)-1-(4-thiophen-3-ylphenyl)-1H-pyrazol-4-ylmethyl]-4-methylpiperazine], the half-maximal inhibitory concentration (IC50) at 5-HT2A receptors was 14 nM; against 5 HT2C receptor it was 520 nM.

Take `CCN1CCN(Cc2cnn(-c3ccc(-c4cccc(F)c4)cc3)c2-c2ccco2)CC1` [Example 570, 1-Ethyl-4-[1-(3′-fluorobiphenyl-4-yl)-5-furan-2-yl-1H-pyrazol-4-ylmethyl]piperazine]: the IC50 on 5-HT2A receptors was 12 nM; at 5 HT2C receptor, 500 nM.

As for `c1coc(-c2c(CN3CCNCC3)cnn2-c2ccc(-c3ccc4c(c3)OCO4)cc2)c1` [Example 534, 1-[1-(4-Benzo-1,3-dioxol-5-ylphenyl)-5-furan-2-yl-1H-pyrazol-4-ylmethyl]piperazine], the 50% inhibitory concentration (IC50) at 5-HT2A receptors turned out to be 2 nM; at 5 HT2C receptor it was 110 nM.

As for `COc1ccc(-c2ccc(-n3ncc(CN4CCC(O)C4)c3-c3ccco3)cc2)cc1` (stereo not drawn) [Example 564, 1-[5-Furan-2-yl-1-(4′-methoxybiphenyl-4-yl)-1H-pyrazol-4-ylmethyl]pyrrolidin-3-ol], the IC50 was determined as 10 nM on 5-HT2A receptors and 630 nM at 5 HT2C receptor.

With `CCN(CC)Cc1cnn(-c2ccc(-c3ccc(OC)cc3)cc2)c1-c1ccco1` [Example 601, Diethyl-[5-furan-2-yl-1-(4′-methoxybiphenyl-4-yl)-1H-pyrazol-4-ylmethyl]amine], the IC50 at 5-HT2A receptors was determined as 26 nM; against 5 HT2C receptor it was 1000 nM.

As to `COc1ccc(-c2ccc(-n3ncc(CN4CCNCC4)c3-c3ccco3)cc2)cc1` [Example 530, 1-[5-Furan-2-yl-1-(4′-methoxybiphenyl-4-yl)-1H-pyrazol-4-ylmethyl]piperazine], the IC50 on 5-HT2A receptors worked out at 1.1 nM; on 5 HT2C receptor, 200 nM.

Turning to `Fc1cccc(-c2ccc(-n3ncc(CN4CCNCC4)c3-c3ccco3)cc2)c1` [Example 541, 1-[1-(3′-Fluorobiphenyl-4-yl)-5-furan-2-yl-1H-pyrazol-4-ylmethyl]piperazine], the IC50 at 5-HT2A receptors came to 3.6 nM; against 5 HT2C receptor, 150 nM.

As to `OC1CCN(Cc2cnn(-c3ccc(-c4cccc(F)c4)cc3)c2-c2ccco2)C1` (stereo not drawn) [Example 562, 1-[1-(3′-Fluorobiphenyl-4-yl)-5-furan-2-yl-1H-pyrazol-4-ylmethyl]pyrrolidin-3-ol], the figures for the IC50 on 5-HT2A receptors and against 5 HT2C receptor were 9.1 nM and 530 nM, respectively.

Consider `Cc1ccoc1-c1c(CN2CCN(C)CC2)cnn1-c1ccc(-c2ccc(F)cc2)cc1` [Example 560, 1-[1-(4′-Fluorobiphenyl-4-yl)-5-(3-methyl-2-furanyl)-1H-pyrazol-4-ylmethyl]-4-methylpiperazine], for which the values for the IC50 on 5-HT2A receptors and at 5 HT2C receptor were 8.9 nM and 780 nM, respectively.

On to `CN1CCN(Cc2cnn(-c3ccc(-c4ccc(F)cc4)cc3)c2-c2ccoc2)CC1` [Example 586, 1-[1-(4′-Fluorobiphenyl-4-yl)-5-furan-3-yl-1H-pyrazol-4-ylmethyl]-4-methylpiperazine], for which the IC50 is 19 nM at 5-HT2A receptors and 1000 nM at 5 HT2C receptor.

As to `CC(C)(C)OC(=O)N1CCN(Cc2cnn(-c3ccc(-c4ccc5c(c4)OCO5)cc3)c2-c2ccco2)CC1` [Example 547, tert-Butyl 4-[1-(4-benzo-1,3-dioxol-5-ylphenyl)-5-furan-2-yl-1H-pyrazol-4-ylmethyl]piperazine-1-carboxylate], the IC50 at 5-HT2A receptors was 4.8 nM; on 5 HT2C receptor it was 1000 nM.

Turning to `CN1CCN(Cc2cnn(-c3ccc(-c4ccncc4)cc3)c2-c2ccccc2F)CC1` [Example 661, 1-[5-(2-Fluorophenyl)-1-(4-pyridin-4-ylphenyl)-1H-pyrazol-4-ylmethyl]-4-methylpiperazine], the IC50 at 5-HT2A receptors is 77 nM; against 5 HT2C receptor, 1000 nM.

On to `CN1CCN(Cc2cnn(-c3ccc(-c4cccc(F)c4)cc3)c2-c2ccco2)CC1` [Example 559, 1-[1-(3′-Fluorobiphenyl-4-yl)-5-furan-2-yl-1H-pyrazol-4-ylmethyl]-4-methylpiperazine], for which the IC50 on 5-HT2A receptors was 8.8 nM; against 5 HT2C receptor it was 250 nM.

As for `Cc1ccoc1-c1c(CN2CCC(O)C2)cnn1-c1ccc(-c2ccc(F)cc2)cc1` (stereo not drawn) [Example 596, 1-[1-(4′-Fluorobiphenyl-4-yl)-5-(3-methyl-2-furanyl)-1H-pyrazol-4-ylmethyl]pyrrolidin-3-ol], the IC50 turned out to be 22 nM on 5-HT2A receptors and 1000 nM on 5 HT2C receptor.

With `CN1CCN(Cc2cnn(-c3ccc(-c4ccc(F)cc4)cc3)c2-c2cccc(Cl)c2)CC1` [Example 619, 1-[5-(3-Chlorophenyl)-1-(4′-fluorobiphenyl-4-yl)-1H-pyrazol-4-ylmethyl]-4-methylpiperazine], the IC50 on 5-HT2A receptors was found to be 34 nM; against 5 HT2C receptor it was 1000 nM.

Regarding `CN1CCC(N(C)Cc2cnn(-c3ccc(-c4ccc(F)cc4)cc3)c2-c2ccco2)C1` (stereo not drawn) [Example 529, [1-(4′-Fluorobiphenyl-4-yl)-5-furan-2-yl-1H-pyrazol-4-ylmethyl]methyl-(1-methylpyrrolidin-3-yl)amine], the IC50 at 5-HT2A receptors is 0.514 nM; against 5 HT2C receptor, 434 nM.
